Columns and labels:
Assay type in all cases: in vivo, human
small bowel [1] = experiment: MR imaging of small bowel after oral contrast solutions (Examples 1-3); details: oral application, FIGS. 1-9
Description: Ten healthy volunteers with no history of gastrointestinal disorder underwent MR imaging following an eight hour fast. The examination was repeated on four different days using different osmotic substances in a randomized order: water, water spiked with mannitol (2.5%), Metamucil (0.7%) or locust bean gum (0.2%). Concentrations of the additives were chosen to avoid side-effects such as diarrhea.
Forty-five minutes prior to the examination, 50 mg of Erythromycin was applied intravenously to increase gastric emptying and the volunteers started ingesting the respective contrast substance. Coronal 2D measurements were performed in the prone patient position with a TRUFISP sequence (TR/TE/flip 3.2/1.6/70°) using 1.5 T scanner (Sonata, Siemens). The acquisition time amounted to 16 sec. Small bowel filling was quantified in two different ways: (1) determination of small bowel fluid by automatically measuring all pixels meeting the signal intensity of water, and (2) assessment of small bowel distension by manual measurement of 15 small bowel diameters and calculating an average value.

small bowel [2] = experiment: MR (TrueFISP) measurement of small bowel loop diameters after 1500 ml oral contrast solution (Example 4); details: for Mean small bowel diameter / Mean small bowel diameter, AV (average of all six volunteer examinations): 1500 ml orally over 45 minutes; for Mean small bowel diameter: MR TrueFISP; for Mean small bowel diameter, AV (average of all six volunteer examinations): average of six volunteers; for Small bowel distension, comparison in words: six volunteers, paired t-test, p<0.01
Description: Six healthy volunteers (three female and three male; age range 21-28 years) without known contraindications to MR imaging were included in this study, which was conducted in accordance with all guidelines set forth by the approving institutional review board. Presence of gastrointestinal disease, previous abdominal surgery and symptoms of gastrointestinal disorders such as post-prandiol belching, nausea or early satiety were excluded. Each volunteer was examined on five different occasions. […] The LBG and Metamucil concentrations were chosen as high as possible within the confines of an unproblematic ingestion regarding viscosity and flavor, while choice of the mannitol concentration was based on previous studies. To assure homogenization of bowel activity, all exams were performed following 8 hour fasts. Prior to each exam, 1500 ml of the respective contrast solution were orally ingested over 45 minutes at a steady, evenly distributed rate. To ensure a consistent ingestion, volunteers were asked to drink 150 ml every four to five minutes. To enhance gastric emptying, 100 mg erythromycin (Abbott Pharmaceutics, Wiesbaden, Germany) were administered intravenously directly after the ingestion of the first 150 ml of the contrast solution. […] For signal reception a large ‘flex surface coils’ was used. Prior to the data acquisition neither spasmolytic agents nor paramagnetic contrast compounds were intravenously applied. […] Other sequence parameters included a field of view 35 cm, a slice thickness of 7 mm (25 slices) and an acquisition time of 24 seconds. Matrix size was 144×256, inter section gap amounted to 1 mm and the number of excitation was one. All 30 MR examinations were of diagnostic image quality. 1500 ml of each solution was ingested within the target time of 45 minutes. Images were quantitatively analyzed independently by two radiologists, who were blinded to the type of oral contrast employed. […] For the measurements bowel loops with maximal diameter were chosen. […] Subsequent analysis was based on mean small bowel diameters and their standard deviations. The effects of the analyzed oral contrast agents concerning small bowel distension were compared by a paired t-test. For the adaptation to multiple samples, a Bonferoni-correction was used.

small bowel [3] = experiment: Blinded qualitative rating of bowel distension on MR images by five radiologists (Example 4); details: six volunteers; consensus of five blinded radiologists
Excerpt: For a qualitative assessment, MR images of all 5 examinations for each volunteer were presented as hardcopies in a randomized and blinded fashion to five radiologists. They were asked to rate the images regarding bowel distention in an ascending order for each volunteer. The qualitative assessment was done by consensus.

stomach and small bowel = experiment: CT-PET measurement of stomach, jejunum and ileum diameters in oncologic patients (Example 5); details: 20 oncologic patients per agent
Description: CT-PET examinations of 60 oncologic patients were performed on a combined CT-PET tomograph. Three different oral contrast agents were randomly assigned to 20 patients each: barium, water, and a solution of 2.5% mannitol and 0.2% locust bean gum (LBG). To compare the bowel distension abilities of the three agents, representative diameters each of the stomach, the jejunum and the ileum were measured by two radiologists. PET images were evaluated qualitatively for areas of increased bowel FDG uptake based on a four-point scale as well as quantitatively by determination of standard uptake values (SUV). To assess the effect of the different contrast agents onto the tracer activity concentration phantom measurements were performed.
Table 3 Intestinal distension of the stomach, the jejunum, and the ileum induced by the contrast agents under investigation as well as SUV of the small intestine in the presence of the different contrast materials. Statistical significance was determined by unpaired Student's test based on 200 measurements each for the stomach, the jejunum, the ileum, and the SUV. Thus, a total of 800 measurements were performed for every contrast agent under investigation.

[4] = Side-effect questionnaire (diarrhea, nausea) 24 hours after MR examination (Example 4)
Excerpt: Twenty-four hours after each MR examination, volunteers were asked by a standardized questionnaire based on a three-point scale (0=no side-effects, 1=mild side-effects, 2=severe side-effects) if either diarrhea or nausea have occurred in association with the contrast ingestion.

[5] = Incidence of diarrhea in patients given contrast agent; details: administered alone as a contrast agent
Description: Further, it has been discovered that the formulations disclosed herein have the unexpected benefit of reducing incidents of diarrhea among patients. For example, when mannitol alone is administered as a contrast agent, approximately 99% of patients experience diarrhea, sometimes in severe form. As a result, the patient's health and/or hydration may be affected, and the exam may be compromised. […] It is believed that this is due to the thickening properties of the stabilizing agent. Accordingly, due to the patient not having to use the bathroom during the procedure, for example, the medical or diagnostic procedure can be performed with less patient discomfort and with less interference. Additionally, patient compliance with the medical or diagnostic procedure is increased due to decreased complications with the procedure.

SMILES | Diagnostic performance / lumen distention, in words (small bowel [1]) | Mean small bowel diameter (small bowel [2]; Volunteer #1) [mm] | Mean small bowel diameter (small bowel [2]; Volunteer #2) [mm] | Mean small bowel diameter (small bowel [2]; Volunteer #3) [mm] | Mean small bowel diameter (small bowel [2]; Volunteer #4) [mm] | Mean small bowel diameter (small bowel [2]; Volunteer #5) [mm] | Mean small bowel diameter (small bowel [2]; Volunteer #6) [mm] | Mean small bowel diameter, AV (average of all six volunteer examinations) (small bowel [2]) [mm] | Small bowel distension, comparison in words (small bowel [2]) | Qualitative assessment of small bowel distension (rating) (small bowel [3]) | Intestinal distension of the ileum, Mean (stomach and small bowel) | Intestinal distension of the jejunum, Mean (stomach and small bowel) | Intestinal distension of the stomach, Mean (stomach and small bowel) | Diarrhea, in words ([4]; of the three evaluated substances) | Diarrhea as side effect, volunteers reporting ([4]; six volunteers, questionnaire 24 hours after MR examination) | Patients experiencing diarrhea [5]
O [Water, water] | does not achieve acceptable or diagnostic results | 13.6 | 15.0 | 12.4 | 14.6 | 12.6 | 11.8 | 13.3 | significantly less small bowel distension | rated poorest | 1.4 | 1.6 | 6.1 |  |  | 
OC[C@@H](O)[C@@H](O)[C@H](O)[C@H](O)CO [Mannitol, mannitol] |  | 23.7 | 22.9 | 19.2 | 19.3 | 22.9 | 19.6 | 21.3 | superior to Metamucil | in four volunteers mannitol was rated better |  |  |  | consistently resulted in diarrhea | 2 of 6 | approximately 99%

— patent US7427391B2, “Formulations for use in medical and diagnostic procedures” (priority 2001, dated 2008)
